The numbers were not newly measured in patent US20110028498A1, “METHOD FOR EVALUATING PATIENTS FOR TREATMENT WITH DRUGS TARGETING RET RECEPTOR TYROSINE KINASE” (priority 2006, published 2011), which cites them from elsewhere.

The test system of the data set is RET-dependent thyroid tumour cell growth. The following applies: in vitro, literature.

For `COc1cc2c(Nc3ccc(Br)cc3F)ncnc2cc1OCC1CCN(C)CC1` [vandetanib, 4-(4-bromo-2-fluoroanilino)-6-methoxy-7-(1-methylpiperidin-4-ylmethoxy)quinazoline], the “growth-inhibitory effect on RET-dependent thyroid tumour cell growth” value is “strong growth-inhibitory effect”.
